Laboratory results reported in patent publication US20230372498A1, “PLK1 SELECTIVE DEGRADATION INDUCING COMPOUND” (UPPTHERA, priority 2020, published 2023).

Molecular target: T1, PLK1 (Homo sapiens, UniProt P53350)
T1 construct: endogenous in cells; host or cells: HeLa
Assay: PLK1 protein degradation in HeLa cells, Western blotting (PLK1/GAPDH ratio)
Type: cell-based
Conditions: 6 hours compound incubation; for DC50: measured only if the grade of Dmax is A or B; for Dmax: thymidine block and release, 10 points three-fold from 3 μM, PLK1 to GAPDH ratio, read-out: Dmax
Procedure, shortened: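 PLK1 level measured by Western blot as PLK1/GAPDH in HeLa lysates (15 μg protein per lane). Cells were blocked with 2 mM thymidine 24 h, released 4 h, and exposed 6 h to compound, 10 concentrations, 3-fold steps, top 3 μM.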

T1 sequence (P53350 whole entry): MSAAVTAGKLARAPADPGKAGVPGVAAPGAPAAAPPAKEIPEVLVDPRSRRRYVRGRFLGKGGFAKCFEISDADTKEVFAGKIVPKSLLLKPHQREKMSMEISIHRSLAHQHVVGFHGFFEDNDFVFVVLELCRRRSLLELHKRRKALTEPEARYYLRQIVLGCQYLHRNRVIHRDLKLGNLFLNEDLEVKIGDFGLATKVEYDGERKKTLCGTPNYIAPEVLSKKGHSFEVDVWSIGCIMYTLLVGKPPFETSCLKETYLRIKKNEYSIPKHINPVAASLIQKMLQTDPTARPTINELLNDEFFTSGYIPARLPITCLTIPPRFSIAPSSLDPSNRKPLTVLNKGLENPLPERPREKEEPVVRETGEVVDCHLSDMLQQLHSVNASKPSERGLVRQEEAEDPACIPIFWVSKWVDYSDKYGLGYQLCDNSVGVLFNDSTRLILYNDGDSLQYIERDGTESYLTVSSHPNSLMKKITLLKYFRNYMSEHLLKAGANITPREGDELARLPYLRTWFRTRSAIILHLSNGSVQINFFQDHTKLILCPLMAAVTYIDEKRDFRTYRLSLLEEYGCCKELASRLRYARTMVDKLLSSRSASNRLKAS

DC50	Dmax	Structure (SMILES)
≤ 0.5 µM	60 to 80%	COc1cc(C(=O)NC2CCN(CCOCCOCC#Cc3cccc4c3C(=O)N(C3CCC(=O)NC3=O)C4=O)CC2)c(F)cc1Nc1ncc2c(n1)N(C1CCCC1)CC(F)(F)C(=O)N2C (centres unmarked) [Compound 54, 4-((9-cyclopentyl-7,7-difluoro-5-methyl-6-oxo-6,7,8,9-tetrahydro-5H-pyrimido[4,5-b][1,4]diazepin-2-yl)amino)-N-(1-(2-(2-((3-(2-(2,6-dioxopiperidin-3-yl)-1,3-dioxoisoindolin-4-yl)prop-2-yn-1-yl)oxy)ethoxy)ethyl)piperidin-4-yl)-2-fluoro-5-methoxybenzamide]
≤ 0.5 µM	60 to 80%	COc1cc(C(=O)NC2CCN(CCOCCOCCCc3cccc4c3C(=O)N(C3CCC(=O)NC3=O)C4=O)CC2)c(F)cc1Nc1ncc2c(n1)N(C1CCCC1)CC(F)(F)C(=O)N2C (centres unmarked) [Compound 55, 4-((9-cyclopentyl-7,7-difluoro-5-methyl-6-oxo-6,7,8,9-tetrahydro-5H-pyrimido[4,5-b][1,4]diazepin-2-yl)amino)-N-(1-(2-(2-(3-(2-(2,6-dioxopiperidin-3-yl)-1,3-dioxoisoindolin-4-yl)propoxy)ethoxy)ethyl)piperidin-4-yl)-2-fluoro-5-methoxybenzamide]
≤ 0.5 µM	60 to 80%	COc1cc(C(=O)NC2CCN(CCOCCNC(=O)COc3cccc4c3C(=O)N(C3CCC(=O)NC3=O)C4=O)CC2)c(F)cc1Nc1ncc2c(n1)N(C1CCCC1)CC(F)(F)C(=O)N2C (centres unmarked) [Compound 56, 4-((9-cyclopentyl-7,7-difluoro-5-methyl-6-oxo-6,7,8,9-tetrahydro-5H-pyrimido[4,5-b][1,4]diazepin-2-yl)amino)-N-(1-(2-(2-(2-((2-(2,6-dioxopiperidin-3-yl)-1,3-dioxoisoindolin-4-yl)oxy)acetamido)ethoxy)ethyl)piperidin-4-yl)-2-fluoro-5-methoxybenzamide]
≤ 0.5 µM	60 to 80%	COc1cc(C(=O)NC2CCN(CCOCCOCCOCCNC(=O)COc3cccc4c3C(=O)N(C3CCC(=O)NC3=O)C4=O)CC2)c(F)cc1Nc1ncc2c(n1)N(C1CCCC1)CC(F)(F)C(=O)N2C (centres unmarked) [Compound 57, 4-((9-cyclopentyl-7,7-difluoro-5-methyl-6-oxo-6,7,8,9-tetrahydro-5H-pyrimido[4,5-b][1,4]diazepin-2-yl)amino)-N-(1-(1-((2-(2,6-dioxopiperidin-3-yl)-1,3-dioxoisoindolin-4-yl)oxy)-2-oxo-6,9,12-trioxa-3-azatetradecan-14-yl)piperidin-4-yl)-2-fluoro-5-methoxybenzamide]
–	< 60%	COc1cc(C(=O)NC2CCN(CCOCCOCCOCCOCCOCCOCCOCCNC(=O)COc3cccc4c3C(=O)N(C3CCC(=O)NC3=O)C4=O)CC2)c(F)cc1Nc1ncc2c(n1)N(C1CCCC1)CC(F)(F)C(=O)N2C (centres unmarked) [Compound 58, 4-((9-cyclopentyl-7,7-difluoro-5-methyl-6-oxo-6,7,8,9-tetrahydro-5H-pyrimido[4,5-b][1,4]diazepin-2-yl)amino)-N-(1-(1-((2-(2,6-dioxopiperidin-3-yl)-1,3-dioxoisoindolin-4-yl)oxy)-2-oxo-6,9,12,15,18,21,24-heptaoxa-3-azahexacosan-26-yl)piperidin-4-yl)-2-fluoro-5-methoxybenzamide]
–	< 60%	COc1cc(C(=O)NC2CCN(CCCCCNC(=O)COc3cccc4c3C(=O)N(C3CCC(=O)NC3=O)C4=O)CC2)c(F)cc1Nc1ncc2c(n1)N(C1CCCC1)CC(F)(F)C(=O)N2C (centres unmarked) [Compound 59, 4-((9-cyclopentyl-7,7-difluoro-5-methyl-6-oxo-6,7,8,9-tetrahydro-5H-pyrimido[4,5-b][1,4]diazepin-2-yl)amino)-N-(1-(5-(2-((2-(2,6-dioxopiperidin-3-yl)-1,3-dioxoisoindolin-4-yl)oxy)acetamido)pentyl)piperidin-4-yl)-2-fluoro-5-methoxybenzamide]
≤ 0.05 µM	≥ 80%	COc1cc(C(=O)NC2CCN(CCC(=O)NCCCCCCCNC(=O)COc3cccc4c3C(=O)N(C3CCC(=O)NC3=O)C4=O)CC2)c(F)cc1Nc1ncc2c(n1)N(C1CCCC1)CC(F)(F)C(=O)N2C (centres unmarked) [Compound 60, 4-((9-cyclopentyl-7,7-difluoro-5-methyl-6-oxo-6,7,8,9-tetrahydro-5H-pyrimido[4,5-b][1,4]diazepin-2-yl)amino)-N-(1-(3-((7-(2-((2-(2,6-dioxopiperidin-3-yl)-1,3-dioxoisoindolin-4-yl)oxy)acetamido)heptyl)amino)-3-oxopropyl)piperidin-4-yl)-2-fluoro-5-methoxybenzamide]
≤ 0.05 µM	60 to 80%	COc1cc(C(=O)NC2CCN(Cc3cccc(CNC(=O)COc4cccc5c4C(=O)N(C4CCC(=O)NC4=O)C5=O)c3)CC2)c(F)cc1Nc1ncc2c(n1)N(C1CCCC1)CC(F)(F)C(=O)N2C (centres unmarked) [Compound 61, 4-((9-cyclopentyl-7,7-difluoro-5-methyl-6-oxo-6,7,8,9-tetrahydro-5H-pyrimido[4,5-b][1,4]diazepin-2-yl)amino)-N-(1-(3-((2-((2-(2,6-dioxopiperidin-3-yl)-1,3-dioxoisoindolin-4-yl)oxy)acetamido)methyl)benzyl)piperidin-4-yl)-2-fluoro-5-methoxybenzamide]
≤ 0.05 µM	60 to 80%	COc1cc(C(=O)NC2CCN(Cc3cncc(CNC(=O)COc4cccc5c4C(=O)N(C4CCC(=O)NC4=O)C5=O)c3)CC2)c(F)cc1Nc1ncc2c(n1)N(C1CCCC1)CC(F)(F)C(=O)N2C (centres unmarked) [Compound 62, 4-((9-cyclopentyl-7,7-difluoro-5-methyl-6-oxo-6,7,8,9-tetrahydro-5H-pyrimido[4,5-b][1,4]diazepin-2-yl)amino)-N-(1-((5-((2-((2-(2,6-dioxopiperidin-3-yl)-1,3-dioxoisoindolin-4-yl)oxy)acetamido)methyl)pyridin-3-yl)methyl)piperidin-4-yl)-2-fluoro-5-methoxybenzamide]
≤ 0.05 µM	≥ 80%	COc1cc(C(=O)NC2CCN(CCCCCCCc3cccc(CNC(=O)COc4cccc5c4C(=O)N(C4CCC(=O)NC4=O)C5=O)c3)CC2)c(F)cc1Nc1ncc2c(n1)N(C1CCCC1)CC(F)(F)C(=O)N2C (centres unmarked) [Compound 63, 4-((9-cyclopentyl-7,7-difluoro-5-methyl-6-oxo-6,7,8,9-tetrahydro-5H-pyrimido[4,5-b][1,4]diazepin-2-yl)amino)-N-(1-(7-(3-((2-((2-(2,6-dioxopiperidin-3-yl)-1,3-dioxoisoindolin-4-yl)oxy)acetamido)methyl)phenyl)heptyl)piperidin-4-yl)-2-fluoro-5-methoxybenzamide]
≤ 0.05 µM	≥ 80%	COc1cc(C(=O)NC2CCN(CCCCCCCc3cncc(CNC(=O)COc4cccc5c4C(=O)N(C4CCC(=O)NC4=O)C5=O)c3)CC2)c(F)cc1Nc1ncc2c(n1)N(C1CCCC1)CC(F)(F)C(=O)N2C (centres unmarked) [Compound 64, 4-((9-cyclopentyl-7,7-difluoro-5-methyl-6-oxo-6,7,8,9-tetrahydro-5H-pyrimido[4,5-b][1,4]diazepin-2-yl)amino)-N-(1-(7-(5-((2-((2-(2,6-dioxopiperidin-3-yl)-1,3-dioxoisoindolin-4-yl)oxy)acetamido)methyl)pyridin-3-yl)heptyl)piperidin-4-yl)-2-fluoro-5-methoxybenzamide]
